# Assay results published in ChEMBL document CHEMBL1201862, “PubChem BioAssay data set” (2004).
#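 Five concentrations, 48 hours, 96-well plates. The concentration for 50% growth inhibition is given as GI50.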 Active and inactive are the calls of the source. Cut-off read from the data, not from the text of the source: active = GI50 up to about 1.1 µM and inactive = higher.
# Tests used:
# Assay in all cases: growth of human tumour cells (NCI), 48 h
# MCF7 = test system: MCF7
# OVCAR-5 = test system: OVCAR-5
# SK-MEL-28 = test system: SK-MEL-28
# NCI-H522 = test system: NCI-H522
# UACC-62 = test system: UACC-62
# SR = test system: SR
# DU-145 = test system: DU-145
# SNB-19 = test system: SNB-19
# Malme-3M = test system: Malme-3M
# MDA-MB-231 = test system: MDA-MB-231
# NCI-H23 = test system: NCI-H23
# K562 = test system: K562
# SF-295 = test system: SF-295
# NCI-H226 = test system: NCI-H226
# 786-0 = test system: 786-0
# HCC 2998 = test system: HCC 2998
# SK-OV-3 = test system: SK-OV-3
# Hs-578T = test system: Hs-578T
# ACHN = test system: ACHN
# CAKI-1 = test system: CAKI-1
# HCT-116 = test system: HCT-116
# CCRF-CEM = test system: CCRF-CEM
# HT-29 = test system: HT-29
# T47D = test system: T47D
# HCT-15 = test system: HCT-15
# A498 = test system: A498
# M14 = test system: M14
# SN12C = test system: SN12C
# HL-60 = test system: HL-60
# KM12 = test system: KM12
# SF-268 = test system: SF-268
# SF-539 = test system: SF-539
# SK-MEL-2 = test system: SK-MEL-2
# UO-31 = test system: UO-31
# MDA-N = test system: MDA-N
# U-251 = test system: U-251
# RPMI-8226 = test system: RPMI-8226
# PC-3 = test system: PC-3
# SK-MEL-5 = test system: SK-MEL-5
# A549 = test system: A549
# HOP-92 = test system: HOP-92
# IGROV-1 = test system: IGROV-1
# COLO 205 = test system: COLO 205
# OVCAR-3 = test system: OVCAR-3
# UACC-257 = test system: UACC-257
# OVCAR-4 = test system: OVCAR-4
# LOX IMVI = test system: LOX IMVI
# RXF 393 = test system: RXF 393
# SW-620 = test system: SW-620
# OVCAR-8 = test system: OVCAR-8
# TK-10 = test system: TK-10
# HOP-62 = test system: HOP-62
# NCI-H460 = test system: NCI-H460
# NCI/ADR-RES = test system: NCI/ADR-RES
# SNB-75 = test system: SNB-75
# BT-549 = test system: BT-549
# MDA-MB-435 = test system: MDA-MB-435
# MOLT-4 = test system: MOLT-4
# EKVX = test system: EKVX
smiles,measurement,setting,value
CC(=O)c1sc2c(c1OC(=O)c1ccccc1)c(=O)n(-c1ccccc1)c(=S)n2-c1ccccc1,GI50,MCF7,35.7 µM (inactive)
same,GI50,OVCAR-5,3.82 µM (inactive)
same,GI50,SK-MEL-28,3.89 µM (inactive)
same,GI50,NCI-H522,28.6 µM (inactive)
same,GI50,UACC-62,13.4 µM (inactive)
same,GI50,SR,3.95 µM (inactive)
same,GI50,DU-145,28.1 µM (inactive)
same,GI50,SNB-19,4.84 µM (inactive)
same,GI50,Malme-3M,2.46 µM (inactive)
same,GI50,MDA-MB-231,7.93 µM (inactive)
same,GI50,NCI-H23,27.3 µM (inactive)
same,GI50,K562,17.4 µM (inactive)
same,GI50,SF-295,2.48 µM (inactive)
same,GI50,NCI-H226,2.62 µM (inactive)
same,GI50,786-0,2.9 µM (inactive)
same,GI50,HCC 2998,17.3 µM (inactive)
same,GI50,SK-OV-3,4.14 µM (inactive)
same,GI50,Hs-578T,3.74 µM (inactive)
same,GI50,ACHN,3.03 µM (inactive)
same,GI50,CAKI-1,8.43 µM (inactive)
same,GI50,HCT-116,13.4 µM (inactive)
same,GI50,CCRF-CEM,2.51 µM (inactive)
same,GI50,HT-29,2.93 µM (inactive)
same,GI50,T47D,9.23 µM (inactive)
same,GI50,HCT-15,18 µM
same,GI50,A498,2.49 µM (inactive)
same,GI50,M14,3.4 µM (inactive)
same,GI50,SN12C,5.78 µM (inactive)
same,GI50,HL-60,34 µM (inactive)
same,GI50,KM12,33.1 µM (inactive)
same,GI50,SF-268,4.97 µM (inactive)
same,GI50,SF-539,2.32 µM (inactive)
same,GI50,SK-MEL-2,2.79 µM (inactive)
same,GI50,UO-31,4.09 µM (inactive)
same,GI50,MDA-N,6.4 µM (inactive)
same,GI50,U-251,3.94 µM (inactive)
same,GI50,RPMI-8226,3.12 µM (inactive)
same,GI50,PC-3,2.9 µM (inactive)
same,GI50,SK-MEL-5,5.62 µM (inactive)
same,GI50,A549,35.3 µM (inactive)
same,GI50,HOP-92,1.69 µM (inactive)
same,GI50,IGROV-1,23.3 µM (inactive)
same,GI50,COLO 205,13.6 µM (inactive)
same,GI50,OVCAR-3,17.9 µM (inactive)
same,GI50,UACC-257,4.38 µM (inactive)
same,GI50,OVCAR-4,20.4 µM (inactive)
same,GI50,LOX IMVI,2.26 µM (inactive)
same,GI50,RXF 393,2.86 µM (inactive)
same,GI50,SW-620,15.2 µM (inactive)
same,GI50,OVCAR-8,4.38 µM (inactive)
same,GI50,TK-10,24 µM (inactive)
same,GI50,HOP-62,15 µM (inactive)
same,GI50,NCI-H460,11.2 µM (inactive)
same,GI50,NCI/ADR-RES,4.65 µM (inactive)
same,GI50,SNB-75,2.26 µM (inactive)
same,GI50,BT-549,> 10 µM (inactive)
same,GI50,MDA-MB-435,4.24 µM (inactive)
same,GI50,MOLT-4,2.26 µM (inactive)
same,GI50,EKVX,15.9 µM (inactive)
COc1cc2c(cc1O)[C@@H]1Cc3c(cc(OC)c(OC)c3Oc3cc4c(cc3OC)CCN(C)[C@@H]4Cc3ccc(O)cc3)[C@H](C2)N1C,GI50,MCF7,55.5 µM (inactive)
same,GI50,OVCAR-5,> 100 µM (inactive)
same,GI50,SK-MEL-28,18.6 µM (inactive)
same,GI50,NCI-H522,27.7 µM (inactive)
same,GI50,UACC-62,> 55.8 µM (inactive)
same,GI50,SR,13 µM (inactive)
same,GI50,DU-145,> 100 µM (inactive)
same,GI50,SNB-19,> 100 µM (inactive)
same,GI50,Malme-3M,17.1 µM (inactive)
same,GI50,MDA-MB-231,43.3 µM (inactive)
same,GI50,NCI-H23,> 100 µM (inactive)
same,GI50,K562,20.3 µM (inactive)
same,GI50,SF-295,46 µM (inactive)
same,GI50,NCI-H226,> 100 µM (inactive)
same,GI50,786-0,36.6 µM (inactive)
same,GI50,HCC 2998,31 µM (inactive)
same,GI50,SK-OV-3,> 94 µM (inactive)
same,GI50,Hs-578T,46 µM (inactive)
same,GI50,ACHN,> 83.2 µM (inactive)
same,GI50,CAKI-1,> 60.3 µM (inactive)
same,GI50,HCT-116,48.1 µM (inactive)
same,GI50,CCRF-CEM,28.6 µM (inactive)
same,GI50,HT-29,35.4 µM (inactive)
same,GI50,T47D,36.1 µM (inactive)
same,GI50,HCT-15,> 78.9 µM
same,GI50,A498,37 µM (inactive)
same,GI50,M14,18.2 µM (inactive)
same,GI50,SN12C,> 71.1 µM (inactive)
same,GI50,HL-60,17.7 µM (inactive)
same,GI50,KM12,45.1 µM (inactive)
same,GI50,SF-268,> 78.9 µM (inactive)
same,GI50,SF-539,23.5 µM (inactive)
same,GI50,SK-MEL-2,22.6 µM (inactive)
same,GI50,UO-31,> 84.9 µM (inactive)
same,GI50,MDA-N,19 µM (inactive)
same,GI50,U-251,46.5 µM (inactive)
same,GI50,RPMI-8226,27.9 µM (inactive)
same,GI50,PC-3,36.2 µM (inactive)
same,GI50,SK-MEL-5,15.8 µM (inactive)
same,GI50,A549,> 100 µM (inactive)
same,GI50,HOP-92,37.9 µM (inactive)
same,GI50,IGROV-1,82.2 µM (inactive)
same,GI50,COLO 205,19.4 µM (inactive)
same,GI50,OVCAR-3,> 100 µM (inactive)
same,GI50,UACC-257,23.2 µM (inactive)
same,GI50,OVCAR-4,33 µM (inactive)
same,GI50,LOX IMVI,18.5 µM (inactive)
same,GI50,RXF 393,2.1 µM (inactive)
same,GI50,SW-620,36.6 µM (inactive)
same,GI50,OVCAR-8,53 µM (inactive)
same,GI50,TK-10,> 72.3 µM (inactive)
same,GI50,HOP-62,> 95.5 µM (inactive)
same,GI50,NCI-H460,53.7 µM (inactive)
same,GI50,NCI/ADR-RES,> 100 µM (inactive)
same,GI50,SNB-75,20.6 µM (inactive)
same,GI50,BT-549,41.2 µM (inactive)
same,GI50,MDA-MB-435,20.6 µM (inactive)
same,GI50,MOLT-4,31 µM (inactive)
same,GI50,EKVX,> 100 µM (inactive)
COc1ccc(/C=N/c2nc3cc4sc(/N=C/c5ccc(OC)cc5)nc4cc3s2)cc1,GI50,MCF7,11.6 µM (inactive)
same,GI50,OVCAR-5,> 81.5 µM (inactive)
same,GI50,SK-MEL-28,> 86.1 µM (inactive)
same,GI50,NCI-H522,10.4 µM (inactive)
same,GI50,UACC-62,27.3 µM (inactive)
same,GI50,SR,22.9 µM (inactive)
same,GI50,DU-145,> 23.7 µM (inactive)
same,GI50,SNB-19,> 100 µM (inactive)
same,GI50,Malme-3M,> 54 µM (inactive)
same,GI50,MDA-MB-231,98.6 µM (inactive)
same,GI50,NCI-H23,15.9 µM (inactive)
same,GI50,K562,34 µM (inactive)
same,GI50,SF-295,43.6 µM (inactive)
same,GI50,NCI-H226,24.9 µM (inactive)
same,GI50,786-0,> 76.4 µM (inactive)
same,GI50,HCC 2998,24.7 µM (inactive)
same,GI50,SK-OV-3,49.7 µM (inactive)
same,GI50,Hs-578T,> 32.7 µM (inactive)
same,GI50,ACHN,43.7 µM (inactive)
same,GI50,CAKI-1,27 µM (inactive)
same,GI50,HCT-116,18.4 µM (inactive)
same,GI50,CCRF-CEM,4.2 µM (inactive)
same,GI50,HT-29,23.1 µM (inactive)
same,GI50,T47D,> 40.9 µM (inactive)
same,GI50,HCT-15,19.5 µM
same,GI50,A498,> 100 µM (inactive)
same,GI50,M14,58.2 µM (inactive)
same,GI50,SN12C,32.7 µM (inactive)
same,GI50,HL-60,18.4 µM (inactive)
same,GI50,KM12,34.1 µM (inactive)
same,GI50,SF-268,56.8 µM (inactive)
same,GI50,SF-539,> 100 µM (inactive)
same,GI50,SK-MEL-2,> 100 µM (inactive)
same,GI50,UO-31,55.7 µM (inactive)
same,GI50,MDA-N,34.2 µM (inactive)
same,GI50,U-251,54.3 µM (inactive)
same,GI50,RPMI-8226,41.8 µM (inactive)
same,GI50,PC-3,> 81.7 µM (inactive)
same,GI50,SK-MEL-5,13.6 µM (inactive)
same,GI50,A549,8 µM (inactive)
same,GI50,HOP-92,> 78.9 µM (inactive)
same,GI50,IGROV-1,57.4 µM (inactive)
same,GI50,COLO 205,3.66 µM (inactive)
same,GI50,OVCAR-3,23.6 µM (inactive)
same,GI50,UACC-257,70.6 µM (inactive)
same,GI50,OVCAR-4,57.4 µM (inactive)
same,GI50,LOX IMVI,28.3 µM (inactive)
same,GI50,RXF 393,> 57.9 µM (inactive)
same,GI50,SW-620,12.8 µM (inactive)
same,GI50,OVCAR-8,> 60.5 µM (inactive)
same,GI50,TK-10,30.9 µM (inactive)
same,GI50,HOP-62,> 49.2 µM (inactive)
same,GI50,NCI-H460,5 µM (inactive)
same,GI50,NCI/ADR-RES,23.4 µM (inactive)
same,GI50,SNB-75,> 100 µM (inactive)
same,GI50,BT-549,27.3 µM (inactive)
same,GI50,MDA-MB-435,29.7 µM (inactive)
same,GI50,MOLT-4,8.15 µM (inactive)
same,GI50,EKVX,21.2 µM (inactive)
